Results from patent US20260234150A1, “COMPOUND FOR INHIBITING NLRP3, PREPARATION METHOD, AND USE” (DOVETREE MEDICINES UNUS, INC., priority 2023, published 2026).

Molecular target: T1, His6-Flag-TEV-NLRP3 (134-1036) (Homo sapiens, UniProt Q96P20)
T1 construct: fused on or other part: N-terminal His6 tag, Flag tag and TEV cleavage site
Test: NLRP3 fluorescence polarization (FP) binding assay, competition with probe NP3-301
Details: competition with NP3-301 for binding to NLRP3 (134-1036), 30 nM protein
Experimental: This experiment uses fluorescence polarization technology to detect and evaluate the binding assay.
The fluorescent probe used in this assay is the compound NP3-301 in the Journal of Molecular Biology (2021) 433, 167309, which was synthesized with reference to this literature.
His6-Flag-TEV-NLRP3 (134-1036) protein (SEQ NO. 1) was purchased from Kaihuiruizhi Biotech (Shanghai) Co., Ltd. (ChemPartner), and was customed for expression.
Prepare 1× assay buffer: 50 mM Hepes, pH 7.4, 150 mM NaCl, 2.5 mM MgCl2, 0.005% Tween-20, 1 mM TCEP, 100 μM ATP.
First, 2.5 μL of 4× compound solution was added to a black shallow 384-well plate (Greiner, 784076), the shallow well plate was sealed, and centrifuged at 1000 rpm for 1 min; then 2× NLPR3 protein solution (final concentration of 30 nM) was added, the shallow well plate was sealed, centrifuged at 1000 rpm for 1 min, and incubated at room temperature for 60 min. Finally, 2.5 μL of 4× NP3-301 (final concentration of 0.5 nM) was added, the shallow well plate was sealed, centrifuged at 1000 rpm for 1 min, and incubated at room temperature for 30 min. Envision was used to read the fluorescence polarization values of λex=485+20 nm and kem=535+25 nm. GraphPad Prism 9.5.0 was used to analyze the data, and the IC50 value of the competition between the compound and NP3-301 for binding to His6-Flag-TEV-NLRP3 (134-1036) was fitted by four-parameter logistic. The compounds of the present disclosure have good NLRP3 binding activity, and the test results of some representative compounds are shown in Table 1.

T1 sequence (Q96P20 134-1036 limits assumed): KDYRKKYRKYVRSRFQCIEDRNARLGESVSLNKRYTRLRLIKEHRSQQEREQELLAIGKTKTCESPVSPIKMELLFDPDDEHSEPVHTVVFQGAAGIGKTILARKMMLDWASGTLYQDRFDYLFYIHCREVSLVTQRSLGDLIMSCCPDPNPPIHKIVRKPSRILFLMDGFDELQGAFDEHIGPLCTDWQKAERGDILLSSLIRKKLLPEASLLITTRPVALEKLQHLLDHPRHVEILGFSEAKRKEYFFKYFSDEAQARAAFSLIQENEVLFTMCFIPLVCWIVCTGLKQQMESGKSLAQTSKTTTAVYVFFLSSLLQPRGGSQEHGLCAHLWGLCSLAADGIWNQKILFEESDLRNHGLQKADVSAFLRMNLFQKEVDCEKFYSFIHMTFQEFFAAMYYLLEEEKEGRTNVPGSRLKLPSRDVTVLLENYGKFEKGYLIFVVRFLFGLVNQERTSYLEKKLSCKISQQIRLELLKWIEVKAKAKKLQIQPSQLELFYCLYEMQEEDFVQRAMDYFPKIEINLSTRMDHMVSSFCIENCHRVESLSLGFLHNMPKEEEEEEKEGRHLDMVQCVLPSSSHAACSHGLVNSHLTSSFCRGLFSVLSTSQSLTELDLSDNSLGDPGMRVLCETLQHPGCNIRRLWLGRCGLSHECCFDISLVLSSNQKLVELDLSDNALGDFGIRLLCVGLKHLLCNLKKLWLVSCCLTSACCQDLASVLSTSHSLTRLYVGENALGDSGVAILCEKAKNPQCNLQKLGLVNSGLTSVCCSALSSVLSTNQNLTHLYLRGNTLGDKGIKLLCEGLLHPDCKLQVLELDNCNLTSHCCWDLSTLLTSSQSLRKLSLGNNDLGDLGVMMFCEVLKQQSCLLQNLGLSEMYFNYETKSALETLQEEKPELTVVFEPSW

IC50 [nM]	Compound
100 to 500	Cc1cc(C(F)(F)F)cc(O)c1-c1ccc2oc(N3C[C@H]4C[C@@H]3CO4)nc2n1 [Compound 379]
100 to 500	Cc1cc(C(F)(F)F)cc(O)c1-c1ccc2oc(N3C[C@@H]4C[C@H]3CO4)nc2n1 [Compound 380]
100 to 500	Cc1cc(C(F)(F)F)cc(O)c1-c1ccc2oc(C3CCCNC3)nc2n1 (centres unmarked) [Compound 382]
100 to 500	Cc1cc(C)c(-c2ccc3oc(N4CCS(=O)(=O)CC4)nc3n2)c(O)c1 [Compound 385]
≤ 100	Cc1cc(C(F)(F)F)cc(O)c1-c1ccc2oc(N3CCS(=O)(=O)c4ccccc43)nc2n1 [Compound 386]
≤ 100	CC(=O)N1CCN(c2nc3nc(-c4c(C)cc(C(F)(F)F)cc4O)ccc3o2)CC1 [Compound 389]
≤ 100	CCS(=O)(=O)N1CCN(c2nc3nc(-c4c(C)cc(C)cc4O)ccc3o2)CC1 [Compound 391]
100 to 500	CCS(=O)(=O)N1CCN(c2nc3nc(-c4c(C)cc(C(F)(F)F)cc4O)ccc3o2)[C@@H](C)C1 [Compound 393]
≤ 100	Cc1cc(C(F)(F)F)cc(O)c1-c1ccc2oc(N3CCN(C)C3=O)nc2n1 [Compound 396]
≤ 100	CCN1C[C@H](Nc2nc3nc(-c4c(C)cc(C(F)(F)F)cc4O)ccc3o2)CC(F)(F)C1 [Compound 398]
≤ 100	Cc1cc(C(F)(F)F)cc(O)c1-c1ccc2oc(N[C@@H]3CCCN(C4COC4)C3)nc2n1 [Compound 401]
≤ 100	Cc1cc(C(F)(F)F)cc(O)c1-c1ccc2oc(N[C@@H]3CCCN(CC#N)C3)nc2n1 [Compound 402]
≤ 100	Cc1cc(C(F)(F)F)cc(O)c1-c1ccc2oc(N[C@@H]3CCCN(CC(C)(C)O)C3)nc2n1 [Compound 403]
≤ 100	Cc1cc(C(F)(F)F)cc(O)c1-c1ccc2oc(N[C@@H]3CCCN(C(=O)C4CC4)C3)nc2n1 [Compound 405]
≤ 100	Cc1cc(C(F)(F)F)cc(O)c1-c1ccc2oc(N[C@@H]3CCCN(S(=O)(=O)C4CC4)C3)nc2n1 [Compound 406]
≤ 100	CC(=O)N1CCC[C@@H](Nc2nc3nc(-c4c(C)cc(C(F)(F)F)cc4O)ccc3o2)C1 [Compound 407]
≤ 100	Cc1cc(C(F)(F)F)cc(O)c1-c1ccc2oc(N[C@@H]3CCCN(S(C)(=O)=O)C3)nc2n1 [Compound 408]
100 to 500	Cc1cc(C(F)(F)F)cc(O)c1-c1ccc2oc(NC3CCN(S(C)(=O)=O)CC3)nc2n1 [Compound 411]
100 to 500	CC(=O)N1CCC(Nc2nc3nc(-c4c(C)cc(C(F)(F)F)cc4O)ccc3o2)CC1 [Compound 412]
100 to 500	CC(=O)N1CCOC[C@H]1CNc1nc2ccc(-c3c(C)cc(C(F)(F)F)cc3O)nn2n1 [Compound 419]
≤ 100	Cc1cc(Cl)cc(O)c1-c1ccc2nc(N3CCOCC3)nn2n1 [Compound 420]
500 to 1000	Cc1cc(C(F)(F)F)cc(O)c1-c1ccc2nc(NC[C@@H]3COCCN3S(C)(=O)=O)nn2n1 [Compound 421]
100 to 500	CC(=O)N1CCOC[C@H]1CNc1nc2c(C)cc(-c3c(C)cc(C(F)(F)F)cc3O)nn2n1 [Compound 425]
≤ 100	Cc1cc(C(F)(F)F)cc(O)c1-c1ccc2cc(N3CCOC[C@H]3C)nn2n1 [Compound 438]
≤ 100	CCN1CCC[C@@H](Nc2nc3ccc(-c4c(C)cc(F)cc4O)nn3n2)C1 [Compound 449]
≤ 100	[2H]C([2H])([2H])C(=O)N1CCOC[C@H]1CNc1nc2nc(-c3c(C)cc(C(F)(F)F)cc3O)ccc2o1 [Compound 450]
≤ 100	CC(=O)N1CCOC[C@H]1CNc1nc2nc(-c3c(C)cc(Cl)cc3O)cc(C)c2o1 [Compound 452]
500 to 1000	CC(=O)N1CCOC[C@H]1CNc1nc2nc(-c3c(C)cc(C(F)(F)F)cc3O)ccn2n1 [Compound 453]
≤ 100	Cc1cc(C(F)(F)F)cc(O)c1-c1ccc2nc(N[C@@H]3CCCN(CCO)C3)nn2n1 [Compound 454]

Second part, the molecule before the results:

Compound	IC50 [nM]
Cc1cc(C(F)(F)F)cc(O)c1-c1ccc2[nH]c(N)nc2n1 [Compound 1]	100 to 500
Cc1cc(C(F)(F)F)cc(O)c1-c1ccc2[nH]c(CC(=O)O)nc2n1 [Compound 4]	500 to 1000
Cc1cc(C(F)(F)F)cc(O)c1-c1ccc2ccc(N)nc2n1 [Compound 7]	100 to 500
CCN1CCC[C@H](n2ccc3cc(-c4c(C)cc(C(F)(F)F)cc4O)nnc32)C1 [Compound 11-b]	100 to 500
Cc1cc(C(F)(F)F)cc(O)c1-c1ccc2nc(N)nn2n1 [Compound 13]	500 to 1000
Cc1cc(C(F)(F)F)cc(O)c1-c1ccc2oc(N[C@@H]3COCC[C@H]3O)nc2n1 [Compound 81]	100 to 500
Cc1cc(C(F)(F)F)cc(O)c1-c1ccc2oc(NC3CC3)nc2n1 [Compound 82]	≤ 100
Cc1cc(C(F)(F)F)cc(O)c1-c1cc2ccn(Cc3cc(C#N)ccn3)c2nn1 [Compound 121]	> 1000
Cc1cc(C(F)(F)F)cc(O)c1-c1cc2ccn(C3CCS(=O)(=O)C3)c2nn1 (centres unmarked) [Compound 123]	500 to 1000
Cc1cc(C(F)(F)F)cc(O)c1-c1cc2ccn(C3CCS(=O)(=O)CC3)c2nn1 [Compound 124]	100 to 500
Cc1cc(C(F)(F)F)cc(O)c1-c1cc2ccn(C3CS(=O)(=O)C3)c2nn1 [Compound 125]	100 to 500
CC(=O)N1CCOC[C@H]1CNc1nc2nc(-c3c(C)cc(C)cc3O)ccc2o1 [Compound 254]	100 to 500
COc1cc(C)c(-c2ccc3oc(NC[C@@H]4COCCN4C(C)=O)nc3n2)c(O)c1 [Compound 255]	500 to 1000
Cc1cc(C(F)(F)F)cc(O)c1-c1ccc2oc(NC[C@@H]3COCCN3S(C)(=O)=O)nc2n1 [Compound 258]	≤ 100
CCS(=O)(=O)N1CCOC[C@H]1CNc1nc2nc(-c3c(C)cc(C(F)(F)F)cc3O)ccc2o1 [Compound 259]	≤ 100
CC(=O)N1CC[C@@H](CNc2nc3nc(-c4c(C)cc(C(F)(F)F)cc4O)ccc3o2)C1 [Compound 271]	100 to 500
CC(=O)N1C[C@@H](O)[C@H](Nc2nc3nc(-c4c(C)cc(C(F)(F)F)cc4O)ccc3o2)C1 [Compound 272]	≤ 100
CC(=O)N1CC[C@H](Nc2nc3nc(-c4c(C)cc(C(F)(F)F)cc4O)ccc3o2)C1 [Compound 273]	100 to 500
Cc1cc(C(F)(F)F)cc(O)c1-c1ccc2oc(N3CC4(COC4)C3)nc2n1 [Compound 357]	100 to 500
CCN1CC2(CCN(c3nc4nc(-c5c(C)cc(C(F)(F)F)cc5O)ccc4o3)CC2)C1 [Compound 358]	100 to 500

Compound	IC50 [nM]
CC(=O)N1CC2(CCN(c3nc4nc(-c5c(C)cc(C(F)(F)F)cc5O)ccc4o3)CC2)C1 [Compound 359]	≤ 100
CC(=O)N1C[C@@H]2CN(c3nc4nc(-c5c(C)cc(C(F)(F)F)cc5O)ccc4o3)C[C@@H]2C1 [Compound 360]	≤ 100
Cc1cc(C(F)(F)F)cc(O)c1-c1ccc2oc(N3CCC4(CCOC4)C3)nc2n1 (centres unmarked) [Compound 361]	100 to 500
Cc1cc(C(F)(F)F)cc(O)c1-c1ccc2oc(N3CCC4(CC3)COC4)nc2n1 [Compound 362]	≤ 100
Cc1cc(C(F)(F)F)cc(O)c1-c1ccc2oc(N3CCC4(CCO4)CC3)nc2n1 [Compound 363]	≤ 100
CC(=O)N1CCC2(CCN(c3nc4nc(-c5c(C)cc(C(F)(F)F)cc5O)ccc4o3)C2)C1 (centres unmarked) [Compound 364]	≤ 100
CC(=O)N1CCC2(CC1)CN(c1nc3nc(-c4c(C)cc(C(F)(F)F)cc4O)ccc3o1)CCO2 [Compound 365]	100 to 500
CC(=O)N1CCC2(CC1)CCN(c1nc3nc(-c4c(C)cc(C(F)(F)F)cc4O)ccc3o1)CC2 [Compound 366]	100 to 500
CCN1CCC2(CC1)CCN(c1nc3nc(-c4c(C)cc(C(F)(F)F)cc4O)ccc3o1)CC2 [Compound 367]	100 to 500
Cc1cc(C(F)(F)F)cc(O)c1-c1ccc2oc(N3CCC4(CCCCO4)CC3)nc2n1 [Compound 368]	≤ 100
CC(=O)N1CCOC2(CCN(c3nc4nc(-c5c(C)cc(C(F)(F)F)cc5O)ccc4o3)CC2)C1 [Compound 369]	100 to 500
CC(=O)N1CCCC2(CCN(c3nc4nc(-c5c(C)cc(C(F)(F)F)cc5O)ccc4o3)CC2)C1 [Compound 370]	500 to 1000
Cc1cc(C(F)(F)F)cc(O)c1-c1ccc2oc(N3CCO[C@@H](C)C3)nc2n1 [Compound 372]	≤ 100
Cc1cc(C(F)(F)F)cc(O)c1-c1ccc2oc(N3CCOC[C@@H]3C)nc2n1 [Compound 373]	100 to 500
Cc1cc(C(F)(F)F)cc(O)c1-c1ccc2oc(N3CCO[C@H](C)C3)nc2n1 [Compound 374]	≤ 100
Cc1cc(C)c(-c2ccc3oc(N4CCOCC4)nc3n2)c(O)c1 [Compound 375]	≤ 100
Cc1cc(C(F)(F)F)cc(O)c1-c1ccc2oc(N3CCCOCC3)nc2n1 [Compound 377]	≤ 100
Cc1cc(C(F)(F)F)cc(O)c1-c1ccc2oc(N3CC4CC(C3)O4)nc2n1 [Compound 378]	100 to 500
Cc1cc(C(F)(F)F)cc(O)c1-c1ccc2oc(N3CC4CC(C3)N4S(C)(=O)=O)nc2n1 [Compound 395]	≤ 100
